Laboratory results as given in the NIST ThermoML archive (doi:10.1021/je500380x).

Test: mn = molality of the nth substance listed, in mol/kg
Conditions: 100 kPa, Liquid; for electrical conductivity: Alternating current cell with electrodes; for viscosity: Falling or rolling sphere viscometry; for mass density: Vibrating tube method

CCC(=O)OCCN1CCNCC1 [2-(piperazin-1-yl)ethyl propionate] + CO
Conditions	electrical conductivity [S/m]	mass density [kg/m3]	viscosity [mPa·s]
293.15 K, m1 = 0.05	0.128	794.44	0.613
293.15 K, m1 = 0.1001	0.211	797.52	0.632
293.15 K, m1 = 0.2006	0.339	803.64	0.675
293.15 K, m1 = 0.3003	0.432	809.65	0.72
293.15 K, m1 = 0.3995	0.506	815.7	0.771
293.15 K, m1 = 0.5005	0.566	821.73	0.828
293.15 K, m1 = 0.6006	0.617	827.94	0.89
293.15 K, m1 = 0.7007	0.657	834.12	0.954
293.15 K, m1 = 0.8007	0.688	840.22	1.033
293.15 K, m1 = 0.9008	0.712	846.35	1.118
293.15 K, m1 = 1.001	0.732	852.36	1.219
293.15 K, m1 = 1.2	0.757	864.62	1.426
293.15 K, m1 = 1.401	0.752	877.59	1.719
293.15 K, m1 = 1.6	0.737	890.02	2.09
293.15 K, m1 = 1.801	0.706	903.1	2.581
293.15 K, m1 = 2	0.656	916.07	3.261
293.15 K, m1 = 2.203	0.605	929.95	4.138
293.15 K, m1 = 2.403	0.542	942.83	5.479
293.15 K, m1 = 2.603	0.479	955.65	7.28
293.15 K, m1 = 2.803	0.409	969.71	9.916
293.15 K, m1 = 3.001	–	982.22	14.36
293.15 K, m1 = 3.006	0.342	–	–
298.15 K, m1 = 0.05	0.132	789.75	0.576
298.15 K, m1 = 0.1001	0.218	792.84	0.592
298.15 K, m1 = 0.2006	0.351	798.96	0.629
298.15 K, m1 = 0.3003	0.448	805.01	0.671
298.15 K, m1 = 0.3995	0.525	811.06	0.716
298.15 K, m1 = 0.5005	0.59	817.14	0.767
298.15 K, m1 = 0.6006	0.644	823.36	0.823
298.15 K, m1 = 0.7007	0.686	829.58	0.881
298.15 K, m1 = 0.8007	0.72	835.68	0.952
298.15 K, m1 = 0.9008	0.748	841.84	1.029
298.15 K, m1 = 1.001	0.77	847.87	1.117
298.15 K, m1 = 1.2	0.794	860.2	1.303
298.15 K, m1 = 1.401	0.797	873.21	1.562
298.15 K, m1 = 1.6	0.784	885.7	1.888
298.15 K, m1 = 1.801	0.755	898.85	2.319
298.15 K, m1 = 2	0.708	911.8	2.909
298.15 K, m1 = 2.203	0.653	925.82	3.661
298.15 K, m1 = 2.403	0.587	938.76	4.801
298.15 K, m1 = 2.603	0.518	951.62	6.312
298.15 K, m1 = 2.803	0.457	964.72	8.495
298.15 K, m1 = 3.001	–	978.3	12.13
298.15 K, m1 = 3.006	0.392	–	–
303.15 K, m1 = 0.05	0.136	785.03	0.542
303.15 K, m1 = 0.1001	0.224	788.13	0.556
303.15 K, m1 = 0.2006	0.362	794.26	0.589
303.15 K, m1 = 0.3003	0.465	800.33	0.627
303.15 K, m1 = 0.3995	0.547	806.4	0.668
303.15 K, m1 = 0.5005	0.615	812.5	0.713
303.15 K, m1 = 0.6006	0.672	818.75	0.764
303.15 K, m1 = 0.7007	0.715	824.99	0.816
303.15 K, m1 = 0.8007	0.756	831.13	0.881
303.15 K, m1 = 0.9008	0.785	837.3	0.95
303.15 K, m1 = 1.001	0.813	843.36	1.028
303.15 K, m1 = 1.2	0.839	855.75	1.194
303.15 K, m1 = 1.401	0.849	868.82	1.425
303.15 K, m1 = 1.6	0.837	881.35	1.713
303.15 K, m1 = 1.801	0.813	894.62	2.093
303.15 K, m1 = 2	0.766	907.8	2.606
303.15 K, m1 = 2.203	0.712	921.66	3.257
303.15 K, m1 = 2.403	0.648	934.65	4.233
303.15 K, m1 = 2.603	0.571	947.56	5.512
303.15 K, m1 = 2.803	0.505	960.73	7.332
303.15 K, m1 = 3.001	–	974.37	10.32
303.15 K, m1 = 3.006	0.439	–	–
308.15 K, m1 = 0.05	0.139	780.29	0.512
308.15 K, m1 = 0.1001	0.232	783.39	0.523
308.15 K, m1 = 0.2006	0.374	789.53	0.554
308.15 K, m1 = 0.3003	0.482	795.62	0.588
308.15 K, m1 = 0.3995	0.566	801.72	0.625
308.15 K, m1 = 0.5005	0.641	807.84	0.665
308.15 K, m1 = 0.6006	0.701	814.12	0.711
308.15 K, m1 = 0.7007	0.748	820.37	0.758
308.15 K, m1 = 0.8007	0.792	826.54	0.817
308.15 K, m1 = 0.9008	0.824	832.74	0.879
308.15 K, m1 = 1.001	0.858	838.83	0.949
308.15 K, m1 = 1.2	0.883	851.28	1.098
308.15 K, m1 = 1.401	0.892	864.42	1.305
308.15 K, m1 = 1.6	0.889	876.97	1.56
308.15 K, m1 = 1.801	0.862	890.31	1.895
308.15 K, m1 = 2	0.818	903.56	2.346
308.15 K, m1 = 2.203	0.766	917.48	2.912
308.15 K, m1 = 2.403	0.703	930.52	3.753
308.15 K, m1 = 2.603	0.626	943.48	4.841
308.15 K, m1 = 2.803	0.559	956.73	6.372
308.15 K, m1 = 3.001	–	970.42	8.863
308.15 K, m1 = 3.006	0.483	–	–
313.15 K, m1 = 0.05	0.142	775.51	0.484
313.15 K, m1 = 0.1001	0.238	778.61	0.494
313.15 K, m1 = 0.2006	0.384	784.77	0.522
313.15 K, m1 = 0.3003	0.498	790.88	0.552
313.15 K, m1 = 0.3995	0.586	797	0.585
313.15 K, m1 = 0.5005	0.661	803.15	0.623
313.15 K, m1 = 0.6006	0.729	809.45	0.664
313.15 K, m1 = 0.7007	0.779	815.73	0.706
313.15 K, m1 = 0.8007	0.823	821.92	0.76
313.15 K, m1 = 0.9008	0.857	828.14	0.815
313.15 K, m1 = 1.001	0.898	834.22	0.878
313.15 K, m1 = 1.2	0.931	846.77	1.012
313.15 K, m1 = 1.401	0.948	859.97	1.197
313.15 K, m1 = 1.6	0.941	872.59	1.425
313.15 K, m1 = 1.801	0.918	885.98	1.723
313.15 K, m1 = 2	0.873	899.28	2.12
313.15 K, m1 = 2.203	0.82	913.27	2.614
313.15 K, m1 = 2.403	0.751	926.52	3.343
313.15 K, m1 = 2.603	0.674	939.34	4.274
313.15 K, m1 = 2.803	0.599	952.7	5.571
313.15 K, m1 = 3.001	–	966.46	7.662
313.15 K, m1 = 3.006	0.534	–	–
318.15 K, m1 = 0.05	0.145	770.7	0.459
318.15 K, m1 = 0.1001	0.243	773.8	0.468
318.15 K, m1 = 0.2006	0.395	779.98	0.493
318.15 K, m1 = 0.3003	0.511	786.11	0.521
318.15 K, m1 = 0.3995	0.604	792.25	0.55
318.15 K, m1 = 0.5005	0.685	798.42	0.584
318.15 K, m1 = 0.6006	0.754	804.74	0.622
318.15 K, m1 = 0.7007	0.806	811.06	0.66
318.15 K, m1 = 0.8007	0.855	817.27	0.708
318.15 K, m1 = 0.9008	0.891	823.51	0.759
318.15 K, m1 = 1.001	0.936	829.66	0.814
318.15 K, m1 = 1.2	0.975	842.24	0.935
318.15 K, m1 = 1.401	0.994	855.48	1.102
318.15 K, m1 = 1.6	0.995	868.17	1.306
318.15 K, m1 = 1.801	0.971	881.62	1.571
318.15 K, m1 = 2	0.932	894.99	1.922
318.15 K, m1 = 2.203	0.874	909.04	2.355
318.15 K, m1 = 2.403	0.809	922.36	2.99
318.15 K, m1 = 2.603	0.724	935.25	3.793
318.15 K, m1 = 2.803	0.656	948.64	4.897
318.15 K, m1 = 3.001	–	962.47	6.668
318.15 K, m1 = 3.006	0.583	–	–
323.15 K, m1 = 0.05	0.148	765.85	0.437
323.15 K, m1 = 0.1001	0.244	768.95	0.445
323.15 K, m1 = 0.2006	0.406	775.15	0.467
323.15 K, m1 = 0.3003	0.529	781.29	0.492
323.15 K, m1 = 0.3995	0.625	787.45	0.519
323.15 K, m1 = 0.5005	0.709	793.64	0.549
323.15 K, m1 = 0.6006	0.782	799.99	0.583
323.15 K, m1 = 0.7007	0.833	806.34	0.617
323.15 K, m1 = 0.8007	0.889	812.57	0.661
323.15 K, m1 = 0.9008	0.927	818.85	0.707
323.15 K, m1 = 1.001	0.976	825.02	0.757
323.15 K, m1 = 1.2	1.017	837.66	0.866
323.15 K, m1 = 1.401	1.042	850.96	1.016
323.15 K, m1 = 1.6	1.045	863.7	1.199
323.15 K, m1 = 1.801	1.032	877.22	1.436
323.15 K, m1 = 2	0.996	890.65	1.748
323.15 K, m1 = 2.203	0.933	904.77	2.13
323.15 K, m1 = 2.403	0.866	918.16	2.685
323.15 K, m1 = 2.603	0.781	931.01	3.381
323.15 K, m1 = 2.803	0.708	944.56	4.325
323.15 K, m1 = 3.001	–	958.45	5.906
323.15 K, m1 = 3.006	0.636	–	–
